Assay results taken from patent US20210283083A1, “USE OF TYROSINE HYDROXYLASE INHIBITORS FOR THE TREATMENT OF AORTIC ANEURYSM” (CONSEJO SUPERIOR DE INVESTIGACIONES CIENTÍFICAS (CSIC), priority 2018, published 2021).

Columns and labels:
Format in all cases: in vivo
[1] = Systolic blood pressure in TgNR4A3^CML mice infused with Ang II; settings: for systolic pressure: Ang II + AMPT
Description: (§1) The studies were developed in male ApoE^−/− mice who were acclimatised to the facility for 1 week before the study. Animals were infused with Ang II (1000 ng/kg/min) by means of osmotic minipumps (model 1004, Alzet) implemented subcutaneously in the interscapular space of the mice after anesthesia with isoflurane. The procedure lasts approximately 15 minutes per animal. Immediately after surgery, antibiotics (penicillin, 22,000 u/Kg, i.m.) and analgesics (buprenorphine 0.05 mg/Kg, i.m.) were administered for preventing infections and limiting animal discomfort, which were kept on a heating pad until they woke up after the intervention and were carefully monitored during the post-surgery period. A group of the mice infused with Ang II received AMPT treatment (100 mg/kg, via i.p) administered twice daily from the day before implementing the Ang II pump and throughout the study (28 days). The control group consisted of ApoE^−/− mice infused with saline. Blood pressure was assessed weekly (at 0, 7, 14, 21 and 28 days) by means of the tail plethysmography method. The diameter of the aorta was also assessed weekly by means of abdominal ultrasound using ultrasound equipment (Vevo2100 Imaging systems, Visualsonics) with a 30 MHz transducer. To do this, the mice were anesthetised by means of 1.5% isofluorane inhalation and secured in a supine position on a heating platform. After shaving the precordial region, the transducer was applied to the abdominal wall to take measurements of the abdominal aorta. Those abdominal aortas with external diameters greater than or equal to 1.5 mm were considered aneurysmal. All measurements were carried out from the images captured by using the analysis software. After 4 weeks, the animals were euthanised by means of terminal intraperitoneal anesthesia with a mixture of medetomidine (1 mg/kg) and ketamine (75 mg/kg) in saline (final volume of 200 μl), aortas were immediately harvested, they were examined to determine the presence of aneurysms and were immediately frozen in nitrogen or fixed in paraformaldehyde for macroscopic characterisation or to be embedded in paraffin and processed for histochemical studies.
The studies were developed in a similar way to that described in Example 3. In this case, the effect of the infusion of Ang II on the diameter of the aorta in control animals (C57BL/6J; WT) and in transgenic mice for NR4A3 (TgNR4A3^CML) was analysed. The transgenic mice infused with Ang II were divided into two groups, one of which received AMPT treatment from the day before implementation of the Ang II pumps, as described in Example 3, while the second group only received the vehicle in which this drug was administered (saline). The control groups consisted of transgenic mice and non-transgenic controls infused with saline.

[2] = system: TgNR4A3^CML mice infused with angiotensin II; test: Ang II-induced aortic aneurysm in TgNR4A3^CML mice (ultrasonography, histology)
Description: (A) Diameter of the aorta of non-transgenic mice (controls; C57BL/6J; WT) and transgenic mice for human NR4A3 (TgNR4A3^CML) infused with saline or angiotensin II (Ang II; 1000 ng/kg/min for 28 days). A group of TgNR4A3^CML mice infused with Ang II was treated with AMPT (100 mg/kg, via IP, administered twice a day from the day before implementing the Ang II pump). The diameter of the aorta was determined by means of ultrasonography. Values are expressed as mean±SEM (at least n=7). P<0.05: * vs. time 0 of the same experimental group; # vs. the same animal infused with saline at the same time; $ vs. TgNR4A3CML infused with Ang II and treated with AMPT. (B) Representative images obtained by means of ultrasonography of the cross-sectional view of the aorta of each of the experimental groups indicated in (A) after 4 weeks of treatment. (C) Representative photographs of the aortas of the mice in the 5 groups at the end of the study.
(§2) FIG. 6. […] Non-transgenic (controls; C57BL/6J; WT) and transgenic mice for human NR4A3 (TgNR4A3^CML) were infused with saline or angiotensin II (Ang II; 1000 ng/kg/min for 28 days). A group of transgenic animals infused with Ang II were treated or not with AMPT (100 mg/kg, via IP, administered twice a day from the day before implementing the Ang II pump). (A and B) Representative images of the histological analysis using Masson's trichrome (A) and orcein (B) staining in sections of the abdominal aorta of the indicated study groups. Arrows indicate elastic fibre ruptures. (C) Representative staining for MAC3 (macrophage marker) in sections of the abdominal aorta of each one of the experimental groups. Arrows indicate positive regions for MAC3. Bar: 100 microns.
as §1
The studies were developed in a similar way to that described in Example 3. […]

[3] = system: ApoE^−/− mice infused with angiotensin II; test: Ang II-induced aortic aneurysm in ApoE^−/− mice (ultrasonography, histology)
Description: FIG. 3. […] (A) Graph which represents the weekly evolution of the aortic diameter of ApoE^−/− mice infused with saline or angiotensin II (Ang II; 1000 ng/kg/min for 28 days) analysed by means of ultrasonography. Animals infused with Ang II were treated or not with AMPT (100 mg/kg via IP, administered twice a day from the day before implementing the Ang II pump). The values correspond to the mean±SEM (saline, n=9; Ang II, n=14; Ang II+AMPT, n=19). P<0.05: * vs. time 0 of the same experimental group; # vs. animals infused with saline at the same time; $ vs. animals infused with Ang II (not treated with AMPT) at the same time. (B) Representative images obtained by means of ultrasonography of the cross-sectional view of the aorta of each of the experimental groups indicated in (A) after 4 weeks of treatment. (C) Representative photographs of the aortas of the mice in the 3 study groups at the end of the study.
as §2, with “4.” for “6.”, “ApoE^−/−” for “Non-transgenic (controls; C57BL/6J; WT) and transgenic”, “mice” for “mice for human NR4A3 (TgNR4A3^CML)”, “Animals” for “A group of transgenic animals”
as §1

[4] = Systolic blood pressure by tail plethysmography in ApoE^−/− mice infused with Ang II; settings: for systolic pressure: Ang II 1000 ng/kg/min + AMPT 100 mg/kg i.p. twice daily
Description: as §1

[5] = TgNR4A3^CML mice, Ang II, AMPT treatment
[6] = ApoE^−/− mice, Ang II, AMPT 100 mg/kg i.p. twice daily, 28 days

With `CC(N)(Cc1ccc(O)cc1)C(=O)O` (stereo not drawn) [AMPT, alpha-methyl-p-tyrosine] the systolic pressure ([1]; day 0, mean ± SEM) was 100.19 mm Hg, the systolic pressure ([1]; day 7, mean ± SEM) was 111.79 mm Hg and the systolic pressure ([1]; day 14, mean ± SEM) was 129.03 mm Hg. The systolic pressure ([1]; day 21, mean ± SEM) was 146.44 mm Hg, the systolic pressure ([1]; day 28, mean ± SEM) was 158.59 mm Hg and the “effect of AMPT treatment on Ang II-increased blood pressure” value ([1]; Ang II infusion, AMPT 100 mg/kg i.p. twice daily) was “without significant differences”. The “development of aortic aneurysm” value ([2]; TgNR4A3^CML mice infused with Ang II 1000 ng/kg/min for 28 days, AMPT 100 mg/kg IP twice a day) was “inhibits the development of aortic aneurysm”, the “Ang II-induced increase in aortic diameter (ultrasonography)” value ([2]; TgNR4A3^CML mice, AMPT 100 mg/kg i.p. twice daily, after 21 and 28 days, values similar to WT mice infused with Ang II) was “significantly prevented this effect” and the “structural alterations and inflammatory infiltrate in the aorta” value ([2]; TgNR4A3^CML mice, Ang II 1000 ng/kg/min for 28 days, AMPT 100 mg/kg IP twice a day) was “limits structural alterations and inflammatory infiltrate”. For the same molecule, the “destructuring and rupture of the elastic laminae (orcein staining)” value [2, 5] was “limited the destructuring and rupture of the elastic laminae”, the “vascular inflammatory infiltrate (MAC3 immunohistochemistry)” value [2, 5] was “reduced the important vascular inflammatory infiltrate” and the “vascular remodelling and collagen deposition (Masson's trichrome)” value [2, 5] was “attenuated the exacerbated vascular remodelling and collagen deposition”. The “development of aortic aneurysm” value ([3]; ApoE^−/− mice infused with Ang II 1000 ng/kg/min for 28 days, AMPT 100 mg/kg IP twice a day) was “inhibits the development of aortic aneurysm”, the “Ang II-induced increase in aortic diameter (ultrasonography)” value ([3]; ApoE^−/− mice, AMPT 100 mg/kg i.p. twice daily, significant after 14 days, accentuated until 28 days) was “reduced the increase in aortic diameter to values similar to those of control animals” and the “structural alterations and inflammatory infiltrate in the aorta” value ([3]; ApoE^−/− mice, Ang II 1000 ng/kg/min for 28 days, AMPT 100 mg/kg IP twice a day) was “limits structural alterations and inflammatory infiltrate”. The “disruption and rupture of elastic fibers (orcein staining)” value [3, 6] was “limited the disruption and rupture of elastic fibers”, the “macrophage (MAC3-positive cells) infiltrate in the vascular wall” value [3, 6] was “prevented the significant macrophage (MAC3-positive cells) infiltrate” and the “vascular remodelling / collagen deposition (Masson's trichrome)” value [3, 6] was “attenuated”. For the same molecule, the systolic pressure ([4]; day 0, mean ± SEM) was 100.55 mm Hg, the systolic pressure ([4]; day 7, mean ± SEM) was 133.99 mm Hg and the systolic pressure ([4]; day 14, mean ± SEM) was 136.36 mm Hg. The systolic pressure ([4]; day 21, mean ± SEM) was 143.34 mm Hg, the systolic pressure ([4]; day 28, mean ± SEM) was 154.46 mm Hg and the “effect of AMPT treatment on Ang II-increased blood pressure” value ([4]; Ang II infusion, AMPT 100 mg/kg i.p. twice daily, 28 days) was “not significantly altered”.
